Columns and labels:
[1] = Solid form stability on drying under vacuum; type: physicochemical; conditions: crystalline salts; crystal form after drying
Source text: (§1) Initial studies identified thienopyrimidine carboxylic acids as PDE9 inhibitors which could be used to treat or prevent HF. […] In further studies, the potassium salt was identified as a candidate for formulation because it was soluble, provided high exposure in preclinical toxicology studies, and was relatively easy to scale up. […] Unexpectedly the monohydrate crystalline meglumine salt of the thienopyrimidine compounds afforded the desired properties for a pharmaceutical formulation, as shown in Table 5.

[2] = Hygroscopicity by Dynamic Vapor Sorption; type: physicochemical; conditions: for Hygroscopicity: DVS weight gain: Dynamic Vapor Sorption @ 25° C./95% RH
Source text: as §1

[3] = Dog pharmacokinetic study; type: in vivo, dogs; conditions: for AUClast / Cmax / Tmax: healthy dogs, N = 4 animals/arm, fasted overnight, pentagastrin 30 min prior to dosing, mean plasma profile
Description: Healthy dogs were used to study different salt candidates to evaluate the pharmacokinetic profile of each candidate. Six treatment arms were employed:
Animals were fasted overnight with free access to water. Pentagastrin (PG) (6 μg/kg, IM) was administered 30 min prior to dosing. Food was resumed 4 h post dose.

[4] = Solubility in pharmaceutically acceptable formulation; type: physicochemical; conditions: in any pharmaceutically acceptable formulation
Source text: as §1

[5] = Exposure in preclinical toxicology studies; conditions: in vivo
Source text: as §1

Row | Structure (SMILES) | Stability: Drying under vaccum @50 for 36 hrs [1] | Hygroscopicity: DVS weight gain [2] | AUClast [3] | Cmax [3] | Tmax [3] | Solubility (in words) [4] | Exposure in preclinical toxicology studies (in words) [5] | Hygroscopicity (in words) [2] | Pharmacokinetic profile (in words) ([3]; dogs, compared with other salts) | Exposure compared with free acid and potassium salt dosed as solutions (in words) ([3]; dogs, powder in a capsule (PIC))
1 | [K+] [Potassium] | changes | 8-22.5% | 966 ng·h/mL | 398 ng/mL | 1.25 h | soluble | high exposure |  |  | 
2 | CNCC(O)C(O)C(O)C(O)CO.Cc1c(C(=O)O)sc2nc(Cc3ccc(Cl)c(Cl)c3)[nH]c(=O)c12.O [compound 4, meglumine 2-(3,4-dichlorobenzyl)-5-methyl-4-oxo-3,4-dihydrothieno[2,3-d]pyrimidine-6-carboxylate monohydrate] | unchanged | 0.7% | 1008 ng·h/mL | 280 ng/mL | 1.13 h |  |  | low hygroscopicity | superior pharmacokinetic profile | comparable exposure
3 | Cc1c(C(=O)O)sc2nc(Cc3ccc(Cl)c(Cl)c3)[nH]c(=O)c12.N=C(N)NCCC[C@H](N)C(=O)O [compound 8, arginine 2-(3,4-dichlorobenzyl)-5-methyl-4-oxo-3,4-dihydrothieno[2,3-d]pyrimidine-6-carboxylate] | changes | 5.9% | 705 ng·h/mL | 246 ng/mL | 1.38 h |  |  |  |  | 
4 | Cc1c(C(=O)O)sc2nc(Cc3ccc(Cl)c(Cl)c3)[nH]c(=O)c12.NCCCC[C@H](N)C(=O)O [compound 9, lysine 2-(3,4-dichlorobenzyl)-5-methyl-4-oxo-3,4-dihydrothieno[2,3-d]pyrimidine-6-carboxylate] | changes | 6.4% | 495 ng·h/mL | 78.4 ng/mL | 3.50 h |  |  |  |  | 

From patent US10822346B2, “Meglumine salts of thienopyrimidines” (Cardurion Pharmaceuticals, LLC, priority 2018, dated 2020)
